What was measured:
Format in all cases: in vivo
Parameters in all cases: key: 0 is no effect; 10 is complete control
[1] = tested on: bedstraw (Galium aparine); assay: Test B pre-/postemergence
How it was run: (§1)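 Seeds were planted and sprayed preemergence, while plants at 2 to 18 cm (1- to 4-leaf stage) were sprayed postemergence at the same time, with test chemical in a non-phytotoxic solvent mixture containing surfactant. After twelve to sixteen days in a greenhouse, injury was rated visually against untreated controls on a 0–10 scale.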

[2] = tested on: rape (Brassica napus); assay: Test B pre-/postemergence
How it was run: as §1

[3] = tested on: smallflower flatsedge (Cyperus difformis); assay: Test B flood test; conditions: for Plant response rating, S. Flatsedge: Postemergence (flood test species)
How it was run: (§2)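 Plants were grown to the 2-leaf stage before treatment with test chemical, then held in a greenhouse for twelve to sixteen days. Injury was visually rated against untreated controls on a 0–10 scale, where 0 is no effect and 10 is complete control.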

[4] = tested on: duck salad (Heteranthera limosa); assay: Test B flood test; conditions: for Plant response rating, Ducksalad: Postemergence (flood test species)
How it was run: as §2

[5] = tested on: rice (Oryza sativa); assay: Test B flood test; conditions: for Plant response rating, Rice: Postemergence (flood test species)
How it was run: as §2

[6] = tested on: bamyardgrass (Echinochloa crus-galli); assay: Test B flood test; conditions: for Plant response rating, Barnyardgrass: Postemergence (flood test species)
How it was run: as §2

[7] = Preemergence, Rate 62 g/ha, scale of 0 to 10
[8] = Rate 62 g/ha, Postemergence (flood test)
[9] = Rate 125 g/ha, Postemergence section (flood test species)

Row | Structure (SMILES) | Plant response rating, Bedstraw [1, 7] | Bedstraw plant response rating ([1]; Rate 62 g/ha, Postemergence) | Bedstraw plant response rating ([1]; Rate 125 g/ha, Postemergence) | Plant response rating, Bedstraw ([1]; Rate 125 g/ha, Preemergence) | Plant response rating, Bedstraw ([1]; Rate 250 g/ha, Postemergence) | Plant response rating, Bedstraw ([1]; Rate 250 g/ha, Preemergence) | Plant response rating, Bedstraw ([1]; Rate 500 g/ha, Postemergence) | Plant response rating, Bedstraw ([1]; Rate 500 g/ha, Preemergence) | Plant response rating, Rape [2, 7] | Rape plant response rating ([2]; Rate 62 g/ha, Postemergence) | Rape plant response rating ([2]; Rate 125 g/ha, Postemergence) | Plant response rating, Rape ([2]; Rate 125 g/ha, Preemergence) | Plant response rating, Rape ([2]; Rate 250 g/ha, Postemergence) | Plant response rating, Rape ([2]; Rate 250 g/ha, Preemergence) | Plant response rating, Rape ([2]; Rate 500 g/ha, Postemergence) | Plant response rating, Rape ([2]; Rate 500 g/ha, Preemergence) | S. Flatsedge plant response rating [3, 8] | S. Flatsedge plant response rating [3, 9] | Plant response rating, S. Flatsedge ([3]; Rate 250 g/ha) | Plant response rating, S. Flatsedge ([3]; Rate 500 g/ha) | further results
1 | Cc1cnc(-c2ccc(C(F)(F)F)cc2)nc1Cn1ccc(C#N)n1 [Compound 53] | 1 | 5 | 8 | 3 | 10 | 7 | 10 | 8 | 2 | 8 | 8 | 5 | 8 | 7 | 9 | 7 | 5 | 8 | 9 | 9 | Ducksalad plant response rating [4, 8]: 0; Ducksalad plant response rating [4, 9]: 2; Plant response rating, Ducksalad ([4]; Rate 250 g/ha): 5; Plant response rating, Ducksalad ([4]; Rate 500 g/ha): 7; Rice plant response rating [5, 8]: 1; Rice plant response rating [5, 9]: 1; Plant response rating, Rice ([5]; Rate 250 g/ha): 1; Plant response rating, Rice ([5]; Rate 500 g/ha): 2; Barnyardgrass plant response rating [6, 8]: 1; Barnyardgrass plant response rating [6, 9]: 2; Plant response rating, Barnyardgrass ([6]; Rate 250 g/ha): 2; Plant response rating, Barnyardgrass ([6]; Rate 500 g/ha): 2
2 | Cc1cnc(-c2ccc(C(F)(F)F)cc2)nc1Cn1cc(Br)cn1 [Compound 54] | 0 | 3 | 4 | 0 | 7 | 1 | 9 | 4 | 0 | 7 | 8 | 0 | 9 | 3 | 9 | 3 | 6 | 8 | 9 | 9 | Ducksalad plant response rating [4, 8]: 0; Ducksalad plant response rating [4, 9]: 0; Plant response rating, Ducksalad ([4]; Rate 250 g/ha): 1; Plant response rating, Ducksalad ([4]; Rate 500 g/ha): 3; Rice plant response rating [5, 8]: 1; Rice plant response rating [5, 9]: 2; Plant response rating, Rice ([5]; Rate 250 g/ha): 3; Plant response rating, Rice ([5]; Rate 500 g/ha): 4; Barnyardgrass plant response rating [6, 8]: 2; Barnyardgrass plant response rating [6, 9]: 3; Plant response rating, Barnyardgrass ([6]; Rate 250 g/ha): 3; Plant response rating, Barnyardgrass ([6]; Rate 500 g/ha): 4
